Key:
PC12 = test: 86Rb ion-flux assay, positive control cells PC12; format: cell-based; conditions: Rattus norvegicus, PC-12, antagonist, 86Rb influx
Description: The ^86Rb ion-flux assay is conducted as follows:
1. The night before the experiment, cells are plated at 2×10^6 per well (i.e., 2 ml per well) in a 6-well polylysine-coated plate.
2. The culture medium is decanted and the plate washed with 2 ml of assay buffer (50 mM HEPES, 260 mM sucrose, 5.4 mM KCl, 1.8 mM CaCl2, 0.8 mM MgSO4, 5.5 mM glucose) at room temperature.
3. The assay buffer is decanted and 1 ml of assay buffer, containing 3 μCi/ml ^86Rb, with 5 mM ouabain and agoinist or antagonist in a concentration to effect a maximum response, is added.
4. The plate is incubated on ice at 1° C. for 4 min.
5. The buffer is decanted into a waste container and each well was washed with 3 ml of assay buffer, followed by two washes of 2 ml each.
6. The cells are lysed with 2×0.5 ml of 0.2% SDS per well and transferred to a scintillation vial containing 5 ml of scintillation fluid.
7. The radioactivity contained in each vial 5 is measured and the data calculated.

[1] = biological target: T1, functional recombinant nAChR (Homo sapiens, UniProt Q15825); format: cell-based
T1 construct: A 1,743 bp EcoRI fragment, encoding a full-length nAChR α6 subunit, was isolated from KEα6.3; expressed in transfected cells; host or cells: HEK 293 cells, transiently or stably co-transfected
Excerpt: Activation of the ligand-gated nAChR by agonists leads to an influx of cations, including Ca^++, through the receptor channel. Ca^++ entry into the cell through the channel can induce release of calcium contained in intracellular stores. Monovalent cation entry into the cell through the channel can also result in an increase in cytoplasmic Ca^++ levels through depolarization of the membrane and subsequent activation of voltage-dependent calcium channels. Therefore, methods of detecting transient increases in intracellular calcium concentration can be applied to the analysis of functional nicotinic nAChR expression. One method for measuring intracellular calcium levels relies on calcium-sensitive fluorescent indicators.
Calcium-sensitive indicators, such as fluo-3 (Catalog No. F01241, Molecular Probes, Inc., Eugene, Oreg.), are available as acetoxymethyl esters which are membrane permeable. […] Interaction of the free indicator with calcium results in increased fluorescence of the indicator; therefore, an increase in the intracellular Ca^2+ concentration of cells containing the indicator can be expressed directly as an increase in fluorescence.
HEK cells that are transiently or stably co-transfected with DNA encoding appropriate α and/or β subunits and α6 and β3 subunits are analyzed for expression of functional recombinant nAChR using the automated fluorescent indicator-based assay. […]

untransfected HEK cells = conditions: fluo-3, 200 μM nicotine
Description: HEK cells that are transiently or stably co-transfected with DNA encoding appropriate α and/or β subunits and α6 and β3 subunits are analyzed for expression of functional recombinant nAChR using the automated fluorescent indicator-based assay. The assay procedure is as follows. Untransfected HEK cells and HEK cells co-transfected with DNA encoding the appropriate α and β subunits are plated in the wells of a 96-well microtiter dish and loaded with fluo-3 by incubation for 2 hours at 20° C. in a medium containing 20 μM fluo-3, 0.2% Pluronic F-127 in HBS (125 mM NaCl, 5 mM KCl, 1.8 mM CaCl2, 0.62 mM MgSO4, 6 mM glucose, 20 mM HEPES, pH 7.4). The cells are then washed with assay buffer (i.e., HBS). The antagonist d-tubocurarine is added to some of the wells at a final concentration of 10 μM.

T1 sequence (Q15825 31-494): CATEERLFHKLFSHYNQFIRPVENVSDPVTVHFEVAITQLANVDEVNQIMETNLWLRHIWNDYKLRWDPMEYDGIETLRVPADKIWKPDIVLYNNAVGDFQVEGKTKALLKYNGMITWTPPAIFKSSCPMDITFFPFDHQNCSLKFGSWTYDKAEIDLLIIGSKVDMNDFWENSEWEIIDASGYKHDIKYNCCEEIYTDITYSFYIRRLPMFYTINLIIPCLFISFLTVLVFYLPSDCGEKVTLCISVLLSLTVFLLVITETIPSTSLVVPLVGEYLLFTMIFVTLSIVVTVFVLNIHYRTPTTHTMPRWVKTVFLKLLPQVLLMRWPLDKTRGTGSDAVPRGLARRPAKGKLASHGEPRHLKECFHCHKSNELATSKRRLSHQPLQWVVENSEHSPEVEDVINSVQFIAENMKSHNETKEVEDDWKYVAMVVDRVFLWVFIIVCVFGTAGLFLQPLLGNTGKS
T1 sequence (Q05901 25-458 partner limits assumed): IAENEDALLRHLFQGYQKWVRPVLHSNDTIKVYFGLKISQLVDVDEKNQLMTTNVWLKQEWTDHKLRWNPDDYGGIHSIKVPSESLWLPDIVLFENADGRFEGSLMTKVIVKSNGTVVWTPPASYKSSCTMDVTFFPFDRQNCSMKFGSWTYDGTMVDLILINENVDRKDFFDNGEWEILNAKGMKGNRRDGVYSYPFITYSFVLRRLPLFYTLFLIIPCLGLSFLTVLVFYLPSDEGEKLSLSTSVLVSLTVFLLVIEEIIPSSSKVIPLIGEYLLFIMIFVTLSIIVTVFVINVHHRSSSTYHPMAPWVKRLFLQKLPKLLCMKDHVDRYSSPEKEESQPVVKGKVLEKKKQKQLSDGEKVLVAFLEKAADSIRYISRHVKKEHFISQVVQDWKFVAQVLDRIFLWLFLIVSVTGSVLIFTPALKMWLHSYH

`CN1[C@@H]2CC[C@H]1C[C@@H](OC(=O)C(CO)c1ccccc1)C2` (stereo partly shown) [atropine] was tested, and the EC50 (PC12) was 12.5 µM.
`CN1CCCC1c1cccnc1` (stereo not shown) [nicotine] was tested, and the “fluorescence after addition of nicotine” value [1] was “increases dramatically” and the “fluorescence after addition of nicotine” value (untransfected HEK cells) was “does not change”.
For `COc1cc2c3cc1Oc1cc(ccc1O)C[C@@H]1c4c(cc(OC)c(O)c4Oc4ccc(cc4)C[C@@H]3N(C)CC2)CC[N+]1(C)C` [d-tubocurarine], the “nicotine-stimulated increase in fluorescence in cells exposed to antagonist” value ([1]; co-transfected HEK cells, 10 μM d-tubocurarine, 200 μM nicotine) was “not observed”.
